Experimental data published in patent US20250098673A1, “COMPOSITIONS, MEANS AND METHODS FOR A NOVEL INSECT REPELLENT” (priority 2019, published 2025).

Key:
[1] = test system: Whitefly (Bemisia tabaci); test: Study 1: pest control experiment in cauliflower compared to Mospilan; type: in vivo
Experimental: Whitefly (Bemisia tabaci), is a major pest, in many crops around the world. These pests are carriers of several virus diseases and are damaging the leaves and fruit with scratches and punch-and-suck activity. Furthermore, in cauliflower, excreting honeydew on the leaves and fruit, causes to mold development, which can disqualify the products for the market.
DHA was sprayed in two doses on cauliflower, for checking the effect on Whiteflies. These treatments were tested vs. a standard treatment (Mospilan) and a control treatment (not spraying): • DHA, 2.5% (aqueous solution) • DHA, 5% (aqueous solution) • Mospilan (Acetamiprid 200 g/L), 500 ml per hectare • Control (water spraying)
The experiment was implemented with 4 replicates for each treatment (randomly spread). Each replicate was 12 m long and 2 m width. Spraying volume was 40 L/Dunam. The solution for spraying was in a volume of 4 L.
Counting and statistics: Counting Whiteflies and Thrips was made on 20 leaves, selected randomly in each replicate. Variance analysis was made by Tukey-Kramer (α=0.05). Counting was performed every 7 days.

[2] = cited from earlier work
[3] = test system: Culex quinquefasciatus; test: Arm-in-cage mosquito repellency test on human subjects (Protection Time); type: in vivo; conditions: mean of 5 subjects; Sano data obtained at a different time (historical comparison)
Experimental: In an embodiment of this invention, the insect repellent effect of a 20% DHA solution was studied. These studies were carried out at Poseidon Sciences Insect Control Laboratory (Miagao, Iloilo, Philippines), a breeding facility for C. quinquefasciatus, for research and development. The insect repellency of a DHA solution, comprising 20% DHA dissolved in a 30% ethanol aqueous solution, was compared to that of a Placebo solution, comprising 30% ethanol in water, as a negative control solution. As a positive control, the repellency of DHA was also compared to that of a commercial Sano insect repellent, a plant based repellent, using a composition of 20% of citrepel 75 dissolved in water. The placebo and the 20% DHA solution were kept in a refrigerator until the day of use. The samples were removed from the refrigerator and kept at room temperature for 3 hours before the tests were undertaken.
The above-mentioned solutions were then tested on a total of 10 subjects (age 19 to 44 comprising a total of 6 women and 4 men), all in good health. Each subject had signed an Informed Consent Form. This study had been approved by Poseidon Sciences IRB (Institutional Review Board). […]
Following application of the tested solution to the arm of the subject, testing was carried out as follows: a research scientist recorded the time of insertion of the arm into the cage and observed mosquito landing. […]

O=C(CO)CO [DHA, Dihydroxyacetone]
reduction of mature Whitefly compared to control group ([1]; adults, significant): ~65% | reduction of young stage Whitefly (trend) ([1]; young stage, trend): ~40% | carcinogenicity ([2]; SCCS report 2010): non-carcinogenic | irritancy ([2]; SCCS report 2010): non-irritant | skin sensitization or photo sensitization ([2]; SCCS report 2010): did not cause skin sensitization or photo sensitization effects | systemic absorption ([2]; application to skin): not systemically absorbed | safety of DHA sprays applied to skin ([2]; concentrations of up to 10%, SCCS report 2010): safe to use | Protection Time, Mean [3]: 45 min
